# From paper PMC3608532, “Characterization of a Single-Chain Variable Fragment Recognizing a Linear Epitope of Aβ: A Biotechnical Tool for Studies on Alzheimer’s Disease?” (PLoS ONE, 2013)
# Columns and labels:
# [1] = test system: Aβ plaques in brain cryosections of Tg2576 mice; assay: Ex vivo staining of plaques in mouse brain slices; conditions: 9 or 12 months old Tg2576 mice and wildtype control, 20 µm sections; scFv-IC16 400 nM, 6E10 33 nM, 1-11-3 1:200; fluorescence microscopy
# Procedure: Deep frozen horizontal brain cryosections (20 µm thickness) from 9 or 12 months old Tg2576 mice and the respective wildtype control were dried in ambient air for 15 min, and then fixed in ice-cold 4% (w/v) paraformaldehyde for 20 min. Incubation with 70% formic acid for 5 min was performed to enhance immunoreactivity. Sections were permeabilized with 1% Triton X-100 in TBS for 10 min, followed by blocking with Mouse on mouse (M.O.M.) Basic Kit (Vector Laboratories) in TBS-Triton (1%, v/v) for 30 min. Primary antibodies were diluted in 1% BSA/TBS-Triton (working concentration of ScFv: 400 nM, 6E10∶33 nM, 1-11-3 (Covance, USA) in 1∶200 dilution) and probed on the sections for 1 h, incubating at room temperature. […] For double staining, two secondary antibodies (goat anti mouse-Alexa488 and goat anti rabbit-Alexa-568 were mixed directly (working concentration of goat anti rabbit-Alexa568∶1.300). After 1 min of incubation with 0.5 µg/ml DAPI, the sections were coverslip-mounted with Aqua Poly/Mont (Polysciences Inc, Worrington, PA, USA). Sections were examined under a fluorescence microscope (Leica LMD6000 (Leica, Solms, Germany). Excitation Range: UV; blue; green. Excitation Filter: Bp 420/30; Bp 495/15; Bp 570/20) with camera (Leica DFC 310 FX). Images were processed with LAS software (Leica Application Suite, V.4.0.0) and ImageJ (1.45 s).
# Aβ(1-10) = assay: ELISA binding to Aβ(1-10) peptides; conditions: 60 ng/well, 100% C-terminally biotinylated Aβ1-10; p = 0.19 versus N-bio oligomers
# Procedure: An ELISA was applied to characterize the binding affinity of scFv-IC16 to different Aβ conformers. After concentration determination of the Aβ(1-42) monomer, oligomer and fibril preparations, each conformer was diluted in immobilization buffer (0.1 M NaHCO3, pH 9.3) to a concentration of 5 µg/ml, and coated on Nunc immobilizer streptavidin F96 clear plates (250 ng/well) (Nunc, Thermo Scientific, Waltham, MA, USA). Alternatively, Aβ monomers were prepared seedless in the same concentration by dissolving 50 µg N-terminally biotinylated Aβ(1-42) in 1 ml immobilization buffer and diluting it further to 5 µg/ml. N- or C-terminally biotinylated Aβ(1-10) peptides were dissolved in immobilization buffer to a final concentration of 1.2 µg/ml (60 ng/well). 50 µl of these Aβ solutions were incubated in the well for 1 h. Each well was washed with 100 µl immobilization buffer and the plate was stored at 4°C overnight in 100 µl immobilization buffer per well. Unspecific binding sites were blocked with 50 µl blocking buffer (PBS, 1% BSA) at room temperature for 1 h. […] The reaction was terminated by adding sulfuric acid to a final concentration of 1 M. The absorbance was recorded at 450 nm on Polarstar Optima plate reader (BMG, Ortenberg, Germany).
# Aβ(pE3-8) = assay: SPR binding kinetics to immobilized Aβ(pE3-8); conditions: SPR; two N-terminal residues truncated, E3 modified into pyroE3
# Procedure: Binding kinetics were determined by SPR using a Biacore™ X (GE Healthcare, UK). Synthetic Aβ peptides were dissolved in 10 mM NaAc, pH 4.0. The CM5 sensor chip surface (GE Healthcare, UK) was activated using N-ethyl-N′-3 […] carbodiimide (EDC) and N-hydroxysuccinimide (NHS) chemistry followed by 2-(2-pyridinyldithio)ethaneamine hydrochloride (PDEA), in order to introduce a reactive thiol group. Aβ was coupled via the C-terminal cysteine to the chip at a flow rate of 5 µl/min, and the remaining active groups were blocked by injecting cysteine. The immobilization procedure was performed according to manufacturer’s recommendation. All kinetic analyses were performed at a flow rate of 20 µl/min in PBS. Varying concentrations of scFv-IC16 (10 to 5000 nM) and IC16 (10 to 1000 nM) were injected. […] When required, the surface was regenerated by injecting 20 µl 50 mM glycine, pH 11.0. The data evaluation was performed using Biaevaluation Software 4.1.1. ScFv-IC16 data were fitted according to the Langmuir 1∶1 binding model, whereas IC16 data were fitted according to the bivalent binding model. Standard errors of equilibrium dissociation constants (KD) were calculated using standard errors of the corresponding association and dissociation rate constants.
substance,measurement,setting,value
"scFv-IC16: single-chain variable fragment (VH-(Gly4Ser)3-VL, His6- and Myc-tag) derived from Aβ binding monoclonal antibody IC16, expressed in E. coli",plaque staining in brain cryosections,[1],detect plaques specifically
same,"ELISA binding to Aβ(1-10), C-terminal biotin tag",Aβ(1-10),very similar to Aβ oligomers
same,binding to Aβ(pE3-8),Aβ(pE3-8),no binding could be detected
